The results in this text go back to ChEMBL document CHEMBL1149947, “Identification and chemical synthesis of MDL 105,212, a non-peptide tachykinin antagonist with high affinity for NK1 and NK2 receptors” (Bioorg Med Chem Lett, 1996).

One test deals with Substance-P receptor (Homo sapiens, UniProt P25103). The test is described as follows: Binding affinity against Neurokinin 1(NK1) receptor from human IM-9 cells using [I]-Bolton Hunter labeled SP. In kind it is cell-based.
A further test has as its target T1, Substance-K receptor (Homo sapiens, UniProt P21452).
T1 sequence (P21452 whole entry): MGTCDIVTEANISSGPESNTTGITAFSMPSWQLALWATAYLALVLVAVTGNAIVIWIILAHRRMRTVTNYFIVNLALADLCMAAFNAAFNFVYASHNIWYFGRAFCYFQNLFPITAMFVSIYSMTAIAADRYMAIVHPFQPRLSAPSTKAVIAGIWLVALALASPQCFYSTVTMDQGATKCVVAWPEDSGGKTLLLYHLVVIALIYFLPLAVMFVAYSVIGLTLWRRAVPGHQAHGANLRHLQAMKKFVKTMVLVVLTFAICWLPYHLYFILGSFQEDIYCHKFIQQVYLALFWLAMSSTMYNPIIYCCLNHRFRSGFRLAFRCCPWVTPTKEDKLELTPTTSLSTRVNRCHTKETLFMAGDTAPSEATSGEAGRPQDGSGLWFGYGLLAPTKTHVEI
The test is described as follows: Binding affinity against human NK2 receptors from HSKR-1 cells using [125I]-Iodohistidyl NKA. It counts as cell-based.

The next test deals with T2, Neuromedin-K receptor (Cavia porcellus, UniProt P30098).
T2 sequence (P30098 whole entry): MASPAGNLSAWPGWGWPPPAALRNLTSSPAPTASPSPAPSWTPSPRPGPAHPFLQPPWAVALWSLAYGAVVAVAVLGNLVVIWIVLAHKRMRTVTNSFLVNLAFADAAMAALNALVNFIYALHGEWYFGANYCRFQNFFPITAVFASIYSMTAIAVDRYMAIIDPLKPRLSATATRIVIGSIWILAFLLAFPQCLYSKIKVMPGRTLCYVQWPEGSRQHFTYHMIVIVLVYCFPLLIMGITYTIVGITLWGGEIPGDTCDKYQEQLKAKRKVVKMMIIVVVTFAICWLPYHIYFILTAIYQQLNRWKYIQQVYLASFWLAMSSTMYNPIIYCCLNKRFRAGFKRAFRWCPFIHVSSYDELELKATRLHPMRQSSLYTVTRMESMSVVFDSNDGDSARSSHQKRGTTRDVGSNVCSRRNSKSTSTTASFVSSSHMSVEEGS
The test is described as follows: NK3 IC50 determined using [125I]bolton Hunter labeled eledoisin at NK3 receptors from guinea pig cerebral cortex. It counts as tissue-based.

Substance-P receptor, sequence (P25103 whole entry): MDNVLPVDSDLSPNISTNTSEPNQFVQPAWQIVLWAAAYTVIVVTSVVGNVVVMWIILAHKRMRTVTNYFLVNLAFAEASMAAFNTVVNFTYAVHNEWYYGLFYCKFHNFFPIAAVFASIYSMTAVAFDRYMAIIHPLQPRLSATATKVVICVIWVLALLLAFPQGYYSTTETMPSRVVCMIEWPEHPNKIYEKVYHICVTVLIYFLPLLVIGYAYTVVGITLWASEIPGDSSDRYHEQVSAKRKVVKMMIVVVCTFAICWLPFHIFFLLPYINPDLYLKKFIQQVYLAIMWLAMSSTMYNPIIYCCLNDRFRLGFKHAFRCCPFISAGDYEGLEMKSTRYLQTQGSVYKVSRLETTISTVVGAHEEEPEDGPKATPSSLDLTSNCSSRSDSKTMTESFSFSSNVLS

For the compound `COc1cc(CC(=O)N2CCC(CCN3CCC(C(N)=O)(c4ccccc4)CC3)(c3ccc(Cl)c(Cl)c3)C2)cc(OC)c1OC` (configuration not stated), the IC50 on Substance-P receptor came out at 0.0662 µM; at Substance-K receptor it was 0.0555 µM. `COc1ccccc1CC(=O)N1CCC(CCN2CCC(C(N)=O)(c3ccccc3)CC2)(c2ccc(Cl)c(Cl)c2)C1` (configuration not stated) had an IC50 on Substance-P receptor of 0.0482 µM. This counts as double-digit nanomolar. On to `COc1cccc(C(=O)N2CCC(CCN3CCC(C(N)=O)(c4ccccc4)CC3)(c3ccc(Cl)c(Cl)c3)C2)c1` (configuration not stated), for which the figures for the IC50 at Substance-P receptor and at Substance-K receptor were 0.107 µM and 0.012 µM, respectively. `COc1ccc(C(=O)N2CCC(CCN3CCC(C(N)=O)(c4ccccc4)CC3)(c3ccc(Cl)c(Cl)c3)C2)c(OC)c1` (configuration not stated): the IC50 at Substance-P receptor came out at 0.127 µM. As to `COc1ccccc1C(=O)N1CCC(CCN2CCC(C(N)=O)(c3ccccc3)CC2)(c2ccc(Cl)c(Cl)c2)C1` (configuration not stated), the IC50 is 0.0736 µM at Substance-P receptor and 0.0167 µM on Substance-K receptor. Turning to `COc1cc(OC)cc(C(=O)N2CCC(CCN3CCC(C(N)=O)(c4ccccc4)CC3)(c3ccc(Cl)c(Cl)c3)C2)c1` (configuration not stated), the results for the IC50 at Substance-P receptor and at Substance-K receptor were 0.0699 µM and 0.0191 µM, respectively. For `COc1c(Br)cc(C(=O)N2CCC(CCN3CCC(C(N)=O)(c4ccccc4)CC3)(c3ccc(Cl)c(Cl)c3)C2)cc1Br` (configuration not stated) the same measures were 0.313 µM and 0.00404 µM. For `CCOC(=O)Oc1c(OC)cc(C(=O)N2CCC(CCN3CCC(C(N)=O)(c4ccccc4)CC3)(c3ccc(Cl)c(Cl)c3)C2)cc1OC` (configuration not stated) the same measures were 0.252 µM and 0.0963 µM.

On to `COc1c(C)cc(C(=O)N2CCC(CCN3CCC(C(N)=O)(c4ccccc4)CC3)(c3ccc(Cl)c(Cl)c3)C2)cc1C` (configuration not stated), for which the results for the IC50 at Substance-P receptor and on Substance-K receptor were 0.168 µM and 0.00694 µM, respectively. On to `COc1cc(C(=O)N2CC[C@](CCN3CCC(C(N)=O)(c4ccccc4)CC3)(c3ccc(Cl)c(Cl)c3)C2)cc(OC)c1OC`, for which the IC50 is 0.00311 µM at Substance-P receptor, 0.0084 µM at Substance-K receptor and 0.021 µM on Neuromedin-K receptor. On Substance-P receptor, `NC(=O)C1(c2ccccc2)CCN(CCC2(c3ccc(Cl)c(Cl)c3)CCN(C(=O)c3ccccc3)C2)CC1` (configuration not stated) had an IC50 of 0.271 µM. As to `COc1cc(C(=O)N2CCC(CCN3CCC(C(N)=O)(c4ccccc4)CC3)(c3ccc(Cl)c(Cl)c3)C2)cc(OC)c1C` (configuration not stated), the IC50 was found to be 0.0641 µM at Substance-P receptor and 0.0134 µM at Substance-K receptor. As for `COc1cccc(OC)c1C(=O)N1CCC(CCN2CCC(C(N)=O)(c3ccccc3)CC2)(c2ccc(Cl)c(Cl)c2)C1` (configuration not stated), the IC50 worked out at 0.0228 µM on Substance-P receptor and 0.0532 µM on Substance-K receptor. For `COc1cc(C(=O)N2CCC(CCN3CCC(C(N)=O)(c4ccccc4)CC3)(c3ccc(Cl)c(Cl)c3)C2)cc(OC)c1OC(C)C` (configuration not stated) the same measures were 0.0659 µM and 0.0424 µM. Turning to `CC(C)Oc1cccc(CC(=O)N2CCC(CCN3CCC(C(N)=O)(c4ccccc4)CC3)(c3ccc(Cl)c(Cl)c3)C2)c1` (configuration not stated), the IC50 on Substance-P receptor is 0.138 µM; at Substance-K receptor it was 0.548 µM. The like results for `COc1ccc(C(=O)N2CCC(CCN3CCC(C(N)=O)(c4ccccc4)CC3)(c3ccc(Cl)c(Cl)c3)C2)cc1` (configuration not stated) were, in that order, 0.634 µM and 0.0118 µM. Regarding `COc1cc(C(=O)N2CCC(CCN3CCC(C(N)=O)(c4ccccc4)CC3)(c3ccc(Cl)c(Cl)c3)C2)cc(OC)c1OC` (configuration not stated), the IC50 at Substance-P receptor came out at 0.00619 µM; on Substance-K receptor it was 0.0188 µM. Regarding `COc1ccccc1CN[C@H]1C2CCN(CC2)[C@H]1C(c1ccccc1)c1ccccc1` [CP-96345], the IC50 at Substance-K receptor and on Neuromedin-K receptor was over 10 µM in each case.

As to `CC(=O)NC1(c2ccccc2)CCN(CC[C@H](CN(C)C(=O)c2ccccc2)c2ccc(Cl)c(Cl)c2)CC1` [SAREDUTANT], the IC50 at Substance-P receptor was 0.593 µM; on Substance-K receptor, 0.00044 µM; at Neuromedin-K receptor, 0.208 µM.
